From publication PMC4514850, “A Novel TGR5 Activator WB403 Promotes GLP-1 Secretion and Preserves Pancreatic β-Cells in Type 2 Diabetic Mice” (PLoS ONE, 2015)

Tests used:
Type in all cases: in vivo
[1] = system: gallbladders of mice; test: gallbladder filling in normal mice; conditions: 200 mg/kg ip, normal mice fasted overnight, gallbladders removed 30 min later, n = 10
Text: Fig 1 WB403 activated TGR5 and promoted active GLP-1 secretion. (A) WB403 stimulated hTGR5 in CRE-luciferase report system at the concentration range of 1–20 μmol/l. (B) WB403 stimulated hTGR5 specific cAMP accumulation at the concentration range of 1–50 μmol/l. n = 3. **p<0.01, ***p<0.001 vs. DMSO (+TGR5) group. (C) The hTGR5 targeted CRE-luciferase activity of WB403 and ZY403. […] (D) Effect of WB403 and ZY403 on gallbladders of mice. Normal mice were fasted overnight and treated with compounds (200 mg/kg) or vehicle (DMSO) by ip injection. Gallbladders (GB) were removed 30 min later and volumes measured then normalized to body weight (B.W.). n = 10. **p<0.01 vs. vehicle group. (E) Structure of WB403 and ZY403. WB403 promoted GLP-1 secretion in NCI-H716 cells (F), primary enterocytes (G), and MIN6 cells (H). n = 3. *p<0.05, **p<0.01, ***p<0.001 vs. vehicle group. (I) WB403 promoted GLP-1 in ICR mice. n = 5. **p<0.01 vs. vehicle group. Values represent mean ± SEM.

[2] = system: HFD/STZ mice; test: oral glucose tolerance test in HFD/STZ mice; conditions: 2 g/kg glucose, oral 50, 100 mg/kg 30 min before load
Description: For generation of nongenetic mice model of type 2 diabetes, ICR mice were fed with high fat diet (HFD, with 60% fat, Research Diets) for three weeks, then fasted for 5 h before receiving a single dose of streptozotocin (STZ, Sigma) intraperitoneally (ip) at 80 mg/kg to induce partial insulin deficiency. […] Diabetes was assessed using conventional criteria. Mice with similar degree of hyperglycemia and body weight were randomized into various groups in order to get a similar average PBG in each group.
Mice were fasted overnight (14 h) before glucose tolerance tests. Normal mice received a 4 g/kg glucose challenge and for diabetic mice it’s 2 g/kg. WB403 at 50, 100 mg/kg, or sitagliptin at 100 mg/kg were administrated orally 30 min prior to glucose load (n = 10). For vehicle group, 0.5% CMC was administrated. Blood glucose levels were measured from tail bleeds with a glucometer (Roche, Accu-Chek Performa) at specified time points. Animals were treated and assessed in the order of the vehicle, WB403 50, 100 mg/kg and sitagliptin 100 mg/kg group.
Fig 2 Effects of WB403 on glucose tolerance during OGTT in normal and diabetic mice. OGTT time course and AUC in normal mice (A, B), HFD/STZ mice (C, D) and db/db mice (E, F). Values represent mean ± SD (n = 10). *p<0.05, **p<0.01, ***p<0.001 vs. vehicle group. Asterisks in A, C and E reflect significance between WB403 100 mg/kg and vehicle group.

[3] = pharmacokinetic test in Sprague-Dawley rats; conditions: male, plasma, rat
Description: Adult male Sprague-Dawley rats fasted for 12 h were randomized into two groups (n = 5) for intravenous injection (i.v.) or oral administration (p.o.). Blood samples were collected from the orbital plexus at 10, 20, 30, 40, 60, 90, 120, 150, 180, 240, 360 and 480 min after administration. The concentration of WB403 in plasma was determined by an Aligent Technologies 1260 series HPLC system with a DAD detector. The oral bioavailability (F%) was calculated as F (%) = AUC0-∞(p.o.) / AUC0-∞(i.v.) × Dose (i.v.) / Dose (p.o.).

[4] = iv, i.v. 40 mg/kg, mean ± SEM, n = 5
[5] = po, p.o. 40 mg/kg, mean ± SEM, n = 5

## CCc1cc(-c2nc(C)c(COCc3ccc(Br)cc3)s2)ccn1 [WB403, 4-(5-((4-bromobenzyloxy)-methyl)-4-methylthiazol-2-yl)-2-ethylpyridine]
[1]
  gallbladder filling: did not
[2]
  blood glucose tolerance (OGTT) vs vehicle: The same results
[3]; [4]
  AUC(0-inf): 26900 ng·h/mL
  AUC(0-t): 25000 ng·h/mL
  C0: 25700 ± 4600 ng/mL
  half-life: 166 ± 25.8 min
[3]; oral, p.o. 40 mg/kg vs i.v. 40 mg/kg, from AUC0-∞
  bioavailability: 12%
[3]; [5]
  AUC(0-inf): 3220 ng·h/mL
  AUC(0-t): 2280 ng·h/mL
  Cmax: 980 ± 160 ng/mL
  Tmax: 1.4 h
  half-life: 176 ± 64.6 min
